In US9315443B2, “Liquid cation exchanger” (priority 2011, dated 2016):
“Also recorded” adds a separate entry of the source.

Experiments:
E. coli BL21(DE3) = assay: CFU determination, toxicity of liquid cation exchangers (Example 2); settings: for Number of CFUs after 22 or 24 h relative to t = 0 h: Escherichia coli
Excerpt: 50% DEHPA or lauric acid (15%), in each case dissolved in LAME and with equimolar or 25 mol % loading with ALAME, as liquid cation exchanger, was contacted with an E. coli BL21 (DE3) strain and the influence of these two compounds on the strain's ability to form colonies, expressed in CFUs, was investigated.

E. coli W3110 [1] = settings: Test 2, culture covered with equal volume of solvent
Protocol: First a preculture comprising 20 ml of LB medium in a 100-ml baffle flask was inoculated with a cryoculture of the corresponding strain. The culture was cultured overnight at 37° C. with shaking at 200 rpm and was used on the next day, to inoculate an identical main culture to an OD of 0.2. The main cultures (each 30 mL of LB medium) were then incubated further under the same conditions. At an OD of 0.4 to 0.5, the main culture was covered in each case with equal volumes (30 ml) of solvent and was then incubated further.
For determination of the number of CFUs (colony-forming units), in the next tests 0.1-ml samples were taken and were diluted in sterile 0.9% NaCl solution. Suitable dilution steps were plated out on LB-agar plates. After incubation at 34° C. overnight, the colonies that had formed were counted and the CFUs were determined.
In this case two different concentrations of oleic acid were used and the volume was adjusted by adding the corresponding amount of LAME (lauric acid methyl ester).
In this case various amounts of an unsaturated fatty acid were compared with an unsaturated fatty acid with respect to their toxicity when used as liquid cation exchanger. […] The volumes of the various cation exchangers were compared with LAME. The number of CFUs was determined at the start, after 4.5 h and after 24 h.

E. coli W3110 [2] = assay: CFU determination, lowering ALAME toxicity by contacting with a liquid cation exchanger (Example 3); assay type: cell-based; settings: ALAME 0.2% (w/v) dissolved in aqueous systems
[3] = system: ALA and ALAME producing E. coli strain BL21 (DE3) T1r pBT10 pACYC:Duet[TAcv]; assay: Oxygen transfer rate (OTR) during biotransformation with various ion exchangers (Example 4); assay type: cell-based; settings: 150 mL lauric acid methyl ester with ion exchanger (10% w/w) added to the fermentation broth
Protocol: The biotransformation of lauric acid methyl ester to aminolauric acid methyl ester was tested in the 8-fold parallel fermentation system of DasGip with various ion exchangers.
1 L reactors were used for the fermentation. The pH probes were calibrated by means of a two-point calibration with standard solutions of pH 4.0 and pH 7.0. The reactors were filled with 300 mL water and were autoclaved for 20 min at 121° C., to ensure sterility. Then the pO2 probes were polarized overnight (for at least 6 h). On the next morning, the water was removed under the clean bench and was replaced with high-cell-density medium with 50 mg/L kanamycin and 34 mg/L chloramphenicol. Next the pO2 probes were calibrated with a single-point calibration (stirrer: 600 rpm/gassing: 10 sL/h air) and the feed, correcting-agent and induction-agent sections were cleaned by Clean-in-Place. For this, the hoses were rinsed with 70% ethanol, then with 1 M NaOH, then with sterile deionized water and finally were filled with the respective media.
The ALA and ALAME producing E. coli strain BL21 (DE3) T1r pBT10 pACYC:Duet[TAcv] was first grown from cryoculture in LB medium (25 mL in a 100 mL baffle flask) with 50 mg/L kanamycin and 34 mg/L chloramphenicol overnight at 37° C. and 200 rpm for approx. 18 h.
The 3 cultures were combined in a shaking flask and the optical density was determined as 7.2. For inoculating the reactors at an optical density of 0.1, in each case 4.2 mL was taken up in a 5 mL syringe and the reactors were inoculated by cannula through a septum.
The experiment carried out can be divided into two phases, growing, in which the cells are to reach a specified optical density, and the subsequent biotransformation, in which the expression of the genes necessary for the biotechnological processes of production of ALAME was induced. The pH values were adjusted on one side with ammonia (12.5%) to pH 6.8. During growing and biotransformation, the dissolved oxygen (DO) in the culture was controlled at 30% by means of the stirrer rotary speed and the gassing rate. Fermentation was carried out as fed batch, wherein feed start, 5 g/Lh glucose feed (500 g/L glucose with 1% MgSO4*7H2O and 2.2% NH4Cl), was triggered by a DO peak. […] Expression of transaminase was induced 2 h after feed start by the automatic addition of IPTG (1 mM). Induction of the alk-genes was effected by manual addition of DCPK (0.025% v/v) 10 h after feed start. The optical density of the culture broths was determined before the start of biotransformation.
The biotransformation phase started 14 h after feed start. For this, 150 mL of a mixture of lauric acid methyl ester and the respective ion exchanger (10% w/w) were added as batch to the fermentation broth. Di(2-ethylhexyl-)phosphoric acid (DEHPA), lauric acid, oleic acid, palmitic acid, palmitoleic acid, stearic acid and a mixture of free fatty acids from the saponification of globe thistle oil were used as ion exchangers. In order to make an amino group donor available for the transaminase, 10.7 mL of an alanine solution (125 g/L) was added to the fermentation broth simultaneously with addition of the organic phase. For sampling, 2 mL of fermentation broth was taken from the vessel and a portion of this was diluted 1/20 in an acetone-HCl mixture (c(HCl)=0.1 mol/L) and extracted. Samples were taken from all 8 reactors at 1.25 h, 3 h, 5 h, 20 h, 22 h and […] after the start of biotransformation. The oxygen transfer rate (OTR) and carbon transfer rate (CTR) were determined during the fermentation by exhaust gas analysis on the DasGip systems. The fermentation was ended 22 h after the start of biotransformation.

E. coli W3110 [4] = assay: CFU determination, toxicity of the solvent LAME (Example 1)
Protocol: Before the determination of CFUs could be undertaken, an LB plate (10 g/L peptone from casein, 5 g/L yeast extract, 10 g/L NaCl) was streaked with E. coli BW3110 and incubated for 24 h. In the evening of the next day, a preculture of this previously streaked plate was inoculated. […] On the next day the preculture with an OD600 of 0.2 was inoculated in 200 mL of M9 medium (Na2HPO4 6.79 g/L; KH2PO4 3.0 g/L; NaCl 0.5 g/L; NH4Cl 1 g/L; 1 mL/L trace element solution, pH 7.4. Trace element solution: HCl 37% (=455.8 g/L) 36.50 g/L; MnCl2*7H2O 1.91 g/L; ZnSO4*7H2O 1.87 g/L; Na-EDTA*2H2O (Titriplex III) 0.84 g/L; H3BO3 0.30 g/L; Na2MoO4*2H2O 0.25 g/L; CaCl2*2H2O 4.70 g/L; FeSO4*7H2O 17.80 g/L; CuCl2*2H2O 0.15 g/L) with 3% glucose (w/v) and incubated for approx. 20 h. After incubation of the main culture, the cells were harvested, centrifuged at 5258 g and 4° C. for 10 min and, with an OD600 of 30, were resuspended in 10 mL of 50 mM Kpi buffer at pH 7.4 (or 25 mM HEPES buffer pH 7.4, when CFU determinations with ALAME were carried out). Both buffer solutions used contained 5% glucose (w/v). Then the bacterial suspension was transferred to the shaking flasks and the solutions of the respective substances were added. After mixing by swirling the flask, 100 μL of the suspension was withdrawn by pipette and put into 900 μL of prepared sterile saline. This corresponded to sampling at time point t0. The mixtures were then incubated at 250 rpm and 30° C. The CFUs were determined over a period of 22 h. First the samples were taken at time points t0, t3, t6 and t22. For some mixtures another sampling time point t1.5 was added and furthermore another additional dilution series was plated out, in order to minimize deviations.
The OD600 was 60. The cells were resuspended in 10 mL Kpi buffer and then mixed in the flask with 5 mL LAME 98% (w/w). One dilution step per assay was plated out.

Structure (SMILES)	Number of CFUs after 22 or 24 h relative to t = 0 h (E. coli BL21(DE3))	course of the OTR after addition of the ion exchanger [3]	toxicity to cells concluded from the OTR [3]	also measured
CCCCC(CC)C(=O)O (stereo not drawn) [2-Ethylhexanoic acid]	0%	–	–	Number of CFUs after 22 or 24 h relative to t = 0 h (E. coli W3110 [1]): 0%
COC(=O)CCCCCCCCCCCN [ALAME, 12-aminolauric acid methyl ester]	–	–	–	action on bacteria (E. coli W3110 [2]): bactericidal action
CCCCC(CC)COP(=O)(O)OCC(CC)CCCC (stereo not drawn) [DEHPA, di(2-ethylhexyl)phosphoric acid, reference compound]	0%	drops to 0 within a short time	highly toxic to cells	–
CC(C)CCCCCC(=O)O [Isononanoic acid]	0%	–	–	Number of CFUs after 22 or 24 h relative to t = 0 h (E. coli W3110 [1]): 0%
CCCCCCCCCCCC(=O)OC [LAME, lauric acid methyl ester]	–	–	–	tolerance by the strains used (E. coli BL21(DE3); preliminary tests): tolerated well; percentage drop in the live cell count (E. coli W3110 [4]; 5 mL LAME 98% (w/w) with cells in 10 mL Kpi buffer, OD600 60, after 22 h): 30.3%; number of CFU/mL (E. coli W3110 [4]; 5 mL LAME 98% (w/w) with cells in 10 mL Kpi buffer, OD600 60, over a period of 6 h): remained constant; toxicity of LAME with respect to biotechnologically relevant microorganisms (E. coli W3110 [4]; compared with potassium phosphate buffer (Kpi) as negative control): does not have toxic action; also recorded: relatively low toxicity
CCCCCCCCCCCC(=O)O [Lauric acid]	1.2%	intrusion of the OTR, but it is less pronounced	far less toxic than DEHPA	–
CCCCCCCC/C=C\CCCCCCCC(=O)O [oleic acid]	–	–	even lower toxicity than the saturated fatty acids	–
CCCCCCCCCCCCCCCC(=O)O [palmitic acid]	–	much shallower	far less toxic	–
CCCCCC/C=C\CCCCCCCC(=O)O [palmitoleic acid]	–	–	even lower toxicity than the saturated fatty acids	–
CCCCCCCCCCCCCCCCCC(=O)O [stearic acid]	–	much shallower	far less toxic	–
